Experimental data taken from article PMC6485449 (Clinical cancer research : an official journal of the …, 2013).
Several values for one entry are separate records, joined by “and”; a condition that tells them apart may be missing. Identical values can stand only once. Entries after “also recorded” stand apart in the source; their conditions may differ. Like-named read-outs stand apart in the source and are kept apart here.

Legend:
[1] = molecular target: CYP2C19 (Homo sapiens, UniProt P33261); assay: CYP450 inhibition, CYP2C19; assay type: in vitro ADME; details: concentrations up to 10 μM; data not shown
[2] = test system: Capan-1 (BRCA2 deficient); assay: Single-agent cytotoxicity assay, Capan-1; assay type: cell-based, human
[3] = test system: PAR synthesis in LoVo cells; assay: Intracellular PAR formation assay; assay type: cell-based; details: Homo sapiens
[4] = test system: MX-1 tumor xenografts; assay: MX-1 xenograft, single agent; assay type: in vivo, mice
[5] = test system: LNCap xenograft; assay: LNCap xenograft, single agent; assay type: in vivo, mice; details: 0.33 mg/kg oral QDx28, vs vehicle-treated control
[6] = Liver microsome stability, dog; assay type: in vitro ADME; details: dogs, two hours, 1 μM
[7] = test system: MDA-MB-231; assay: Single-agent 2-D cytotoxicity assay, MDA-MB-231; assay type: cell-based; details: Homo sapiens, MDA-MB-231, read-out: SF50 MDA-MB-231
[8] = test system: MRC-5 (Normal); assay: Single-agent 2-D cytotoxicity assay, MRC-5; assay type: cell-based, human
[9] = test system: PC-3 (PTEN deficient); assay: Single-agent 2-D cytotoxicity assay, PC-3; assay type: cell-based; details: Homo sapiens, read-out: SF50 PC-3 (PTEN deficient)
[10] = test system: MX-1 tumor xenografts; assay: Carboplatin combination study, MX-1 xenograft; assay type: in vivo, mice
[11] = test system: MDA-MB-468 xenograft; assay: MDA-MB-468 xenograft, single agent; assay type: in vivo, mice
[12] = test system: MX-1 cells; assay: SN-38 chemo-sensitization assay; assay type: cell-based, human; details: MX-1 cells in vitro, 5 days
[13] = molecular target: recombinant human PARP1 (Homo sapiens, UniProt P09874); details: for off-rate / on-rate: immobilized rhPARP1, Biacore T200
[14] = molecular target: T1, CYP1A2 (Homo sapiens, UniProt P05177); assay: CYP450 inhibition, CYP1A2; assay type: in vitro ADME; details: concentrations up to 10 μM; data not shown
T1 sequence (P05177 1-516): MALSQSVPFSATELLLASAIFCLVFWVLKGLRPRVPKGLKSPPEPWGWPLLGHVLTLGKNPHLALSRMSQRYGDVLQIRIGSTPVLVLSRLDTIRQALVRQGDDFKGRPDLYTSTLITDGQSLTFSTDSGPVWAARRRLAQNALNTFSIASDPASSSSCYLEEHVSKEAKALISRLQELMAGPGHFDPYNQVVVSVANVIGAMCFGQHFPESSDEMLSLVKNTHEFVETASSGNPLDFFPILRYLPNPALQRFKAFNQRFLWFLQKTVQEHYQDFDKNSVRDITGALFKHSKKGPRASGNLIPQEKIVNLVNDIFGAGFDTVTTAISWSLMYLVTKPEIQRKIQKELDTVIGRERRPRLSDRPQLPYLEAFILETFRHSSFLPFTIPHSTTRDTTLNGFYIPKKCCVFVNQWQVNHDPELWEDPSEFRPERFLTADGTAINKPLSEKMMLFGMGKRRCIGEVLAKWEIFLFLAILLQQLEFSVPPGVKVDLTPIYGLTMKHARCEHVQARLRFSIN

[15] = test system: MX-1 tumor PAR levels; assay: PAR assay in vivo; parameters: species or system mice
[16] = molecular target: Poly (ADP-ribose) Glycohydrolase (PARG) (Homo sapiens, UniProt Q86W56); assay: PARG activity assay; assay type: biochemical; details: concentrations up to 1 μM; data not shown
[17] = molecular target: potassium ion channel hERG (Homo sapiens, UniProt Q12809); assay: hERG in vitro assay; details: concentrations as high as 100 μM
[18] = Combination with platinum drugs in vitro; assay type: cell-based; details: data not shown
[19] = molecular target: CYP2D6 (Homo sapiens, UniProt P10635); assay: CYP450 inhibition, CYP2D6; assay type: in vitro ADME; details: concentrations up to 10 μM; data not shown
[20] = test system: LoVo cells; assay: Temozolomide potentiation; assay type: cell-based, human
[21] = molecular target: CYP3A4 (Homo sapiens, UniProt P08684); assay: CYP450 inhibition, CYP3A4; assay type: in vitro ADME; details: concentrations up to 10 μM; data not shown
[22] = molecular target: CYP2C9 (Homo sapiens, UniProt P11712); assay: CYP450 inhibition, CYP2C9; assay type: in vitro ADME; details: concentrations up to 10 μM; data not shown
[23] = Liver microsome stability, human; assay type: in vitro ADME; details: humans, two hours, 1 μM
[24] = test system: MX-1 tumor xenografts; assay: Cisplatin combination study, MX-1 xenograft; assay type: in vivo, mice
[25] = Liver microsome stability, rat; assay type: in vitro ADME; details: rats, two hours, 1 μM
[26] = Homo sapiens, CAPAN-1, read-out: Capan-1 Cytotoxicity IC50
[27] = Homo sapiens, CAPAN-1, read-out: SF50 Capan-1 (BRCA2 deficient)
[28] = Homo sapiens, MRC5, read-out: SF50 MRC-5 (Normal)
[29] = 2 hours after single oral dose (BMN 673 1 mg/kg; olaparib 100 mg/kg)
[30] = 8 hours after single oral dose (BMN 673 1 mg/kg; olaparib 100 mg/kg)
[31] = 24 hours after single oral dose (BMN 673 1 mg/kg; olaparib 100 mg/kg)

recombinant human PARP1, sequence (P09874 662-1011): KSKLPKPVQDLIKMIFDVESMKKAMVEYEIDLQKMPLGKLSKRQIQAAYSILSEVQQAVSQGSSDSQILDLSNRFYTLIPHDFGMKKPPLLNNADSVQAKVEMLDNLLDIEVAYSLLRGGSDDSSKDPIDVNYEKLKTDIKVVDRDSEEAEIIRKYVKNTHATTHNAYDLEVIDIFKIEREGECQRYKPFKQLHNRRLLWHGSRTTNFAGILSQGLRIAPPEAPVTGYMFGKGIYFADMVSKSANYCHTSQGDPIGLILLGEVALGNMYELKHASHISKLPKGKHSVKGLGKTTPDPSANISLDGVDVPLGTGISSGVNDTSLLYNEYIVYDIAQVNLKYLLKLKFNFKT
CYP3A4, sequence (P08684 whole entry): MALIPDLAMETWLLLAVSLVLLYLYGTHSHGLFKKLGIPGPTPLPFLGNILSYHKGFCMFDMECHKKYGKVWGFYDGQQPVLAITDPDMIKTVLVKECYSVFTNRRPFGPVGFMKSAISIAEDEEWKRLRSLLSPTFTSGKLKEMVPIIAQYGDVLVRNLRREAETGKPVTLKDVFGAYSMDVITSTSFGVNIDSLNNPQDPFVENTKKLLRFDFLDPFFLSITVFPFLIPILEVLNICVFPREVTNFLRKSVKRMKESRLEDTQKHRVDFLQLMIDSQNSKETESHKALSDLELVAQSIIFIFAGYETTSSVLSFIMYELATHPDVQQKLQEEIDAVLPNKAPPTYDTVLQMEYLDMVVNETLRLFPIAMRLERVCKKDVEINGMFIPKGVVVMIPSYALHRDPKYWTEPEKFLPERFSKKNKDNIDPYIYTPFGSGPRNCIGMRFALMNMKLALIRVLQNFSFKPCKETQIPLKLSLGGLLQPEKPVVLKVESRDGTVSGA
CYP2D6, sequence (P10635 whole entry): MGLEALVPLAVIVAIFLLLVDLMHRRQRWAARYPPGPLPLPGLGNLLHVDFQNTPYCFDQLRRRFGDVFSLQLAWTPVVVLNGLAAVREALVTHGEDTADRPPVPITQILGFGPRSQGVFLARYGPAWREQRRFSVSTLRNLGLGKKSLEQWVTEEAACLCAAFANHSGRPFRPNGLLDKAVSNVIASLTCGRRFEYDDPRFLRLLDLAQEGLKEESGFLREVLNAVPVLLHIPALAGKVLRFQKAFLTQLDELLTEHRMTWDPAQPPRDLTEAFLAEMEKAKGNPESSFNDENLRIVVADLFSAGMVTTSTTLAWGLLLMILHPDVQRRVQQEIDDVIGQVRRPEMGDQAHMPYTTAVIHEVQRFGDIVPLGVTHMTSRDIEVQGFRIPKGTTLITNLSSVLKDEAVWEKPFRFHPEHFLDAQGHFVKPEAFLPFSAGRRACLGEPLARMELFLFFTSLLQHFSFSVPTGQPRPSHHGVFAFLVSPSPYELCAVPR
CYP2C19, sequence (P33261 whole entry): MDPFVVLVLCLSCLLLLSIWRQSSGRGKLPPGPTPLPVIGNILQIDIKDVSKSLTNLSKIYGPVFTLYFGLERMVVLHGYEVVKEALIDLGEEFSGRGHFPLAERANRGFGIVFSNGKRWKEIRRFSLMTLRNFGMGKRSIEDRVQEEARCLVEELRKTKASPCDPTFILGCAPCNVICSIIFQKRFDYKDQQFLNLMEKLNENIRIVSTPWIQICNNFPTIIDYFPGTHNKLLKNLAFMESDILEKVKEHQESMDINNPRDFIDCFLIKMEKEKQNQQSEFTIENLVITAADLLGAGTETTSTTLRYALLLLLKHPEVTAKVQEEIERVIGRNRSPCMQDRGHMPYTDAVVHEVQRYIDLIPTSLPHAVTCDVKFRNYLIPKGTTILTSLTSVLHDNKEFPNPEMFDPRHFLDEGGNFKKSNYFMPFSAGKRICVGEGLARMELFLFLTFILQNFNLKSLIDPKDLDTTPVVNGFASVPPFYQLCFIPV
CYP2C9, sequence (P11712 whole entry): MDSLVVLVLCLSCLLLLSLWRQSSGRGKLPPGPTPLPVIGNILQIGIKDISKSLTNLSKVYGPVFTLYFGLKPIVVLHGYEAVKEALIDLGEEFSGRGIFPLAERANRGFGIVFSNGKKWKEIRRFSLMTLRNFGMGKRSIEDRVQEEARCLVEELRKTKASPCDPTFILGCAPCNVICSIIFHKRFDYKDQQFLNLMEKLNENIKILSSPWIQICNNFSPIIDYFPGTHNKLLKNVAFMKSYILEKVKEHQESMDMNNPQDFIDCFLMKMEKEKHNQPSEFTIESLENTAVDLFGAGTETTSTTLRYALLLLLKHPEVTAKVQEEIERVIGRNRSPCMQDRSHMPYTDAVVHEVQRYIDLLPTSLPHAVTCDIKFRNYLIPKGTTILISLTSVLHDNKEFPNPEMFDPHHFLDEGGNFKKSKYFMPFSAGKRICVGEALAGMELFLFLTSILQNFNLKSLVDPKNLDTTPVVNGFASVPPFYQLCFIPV
potassium ion channel hERG, sequence (Q12809 whole entry): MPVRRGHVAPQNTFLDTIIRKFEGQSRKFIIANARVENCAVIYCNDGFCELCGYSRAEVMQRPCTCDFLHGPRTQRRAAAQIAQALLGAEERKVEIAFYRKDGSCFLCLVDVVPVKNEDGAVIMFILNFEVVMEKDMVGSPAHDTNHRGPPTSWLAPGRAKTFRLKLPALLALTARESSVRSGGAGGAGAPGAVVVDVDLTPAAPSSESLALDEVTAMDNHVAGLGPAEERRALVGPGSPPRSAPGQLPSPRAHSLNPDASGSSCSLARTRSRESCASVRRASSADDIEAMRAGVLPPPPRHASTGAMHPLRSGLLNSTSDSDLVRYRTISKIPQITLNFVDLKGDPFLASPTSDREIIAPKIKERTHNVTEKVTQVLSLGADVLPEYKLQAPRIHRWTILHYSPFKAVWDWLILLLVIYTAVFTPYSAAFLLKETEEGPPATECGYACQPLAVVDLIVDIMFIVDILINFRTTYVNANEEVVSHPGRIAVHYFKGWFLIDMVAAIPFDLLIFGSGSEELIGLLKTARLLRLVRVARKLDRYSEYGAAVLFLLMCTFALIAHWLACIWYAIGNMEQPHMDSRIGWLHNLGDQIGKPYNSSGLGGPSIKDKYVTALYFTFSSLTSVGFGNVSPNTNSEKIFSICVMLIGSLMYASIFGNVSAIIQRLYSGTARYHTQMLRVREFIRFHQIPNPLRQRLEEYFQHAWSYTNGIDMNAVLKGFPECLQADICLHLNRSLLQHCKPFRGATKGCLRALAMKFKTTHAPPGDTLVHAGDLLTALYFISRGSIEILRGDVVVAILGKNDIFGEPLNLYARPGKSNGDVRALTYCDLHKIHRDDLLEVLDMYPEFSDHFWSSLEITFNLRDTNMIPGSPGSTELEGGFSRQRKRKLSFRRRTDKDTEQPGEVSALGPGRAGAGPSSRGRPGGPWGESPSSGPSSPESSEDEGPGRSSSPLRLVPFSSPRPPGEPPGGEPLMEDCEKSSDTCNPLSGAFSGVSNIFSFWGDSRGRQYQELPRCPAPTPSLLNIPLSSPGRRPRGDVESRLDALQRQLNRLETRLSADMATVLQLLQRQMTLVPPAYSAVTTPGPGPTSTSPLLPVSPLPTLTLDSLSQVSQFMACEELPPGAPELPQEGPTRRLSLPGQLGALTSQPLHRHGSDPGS
Poly (ADP-ribose) Glycohydrolase (PARG), sequence (Q86W56 whole entry, species assumed): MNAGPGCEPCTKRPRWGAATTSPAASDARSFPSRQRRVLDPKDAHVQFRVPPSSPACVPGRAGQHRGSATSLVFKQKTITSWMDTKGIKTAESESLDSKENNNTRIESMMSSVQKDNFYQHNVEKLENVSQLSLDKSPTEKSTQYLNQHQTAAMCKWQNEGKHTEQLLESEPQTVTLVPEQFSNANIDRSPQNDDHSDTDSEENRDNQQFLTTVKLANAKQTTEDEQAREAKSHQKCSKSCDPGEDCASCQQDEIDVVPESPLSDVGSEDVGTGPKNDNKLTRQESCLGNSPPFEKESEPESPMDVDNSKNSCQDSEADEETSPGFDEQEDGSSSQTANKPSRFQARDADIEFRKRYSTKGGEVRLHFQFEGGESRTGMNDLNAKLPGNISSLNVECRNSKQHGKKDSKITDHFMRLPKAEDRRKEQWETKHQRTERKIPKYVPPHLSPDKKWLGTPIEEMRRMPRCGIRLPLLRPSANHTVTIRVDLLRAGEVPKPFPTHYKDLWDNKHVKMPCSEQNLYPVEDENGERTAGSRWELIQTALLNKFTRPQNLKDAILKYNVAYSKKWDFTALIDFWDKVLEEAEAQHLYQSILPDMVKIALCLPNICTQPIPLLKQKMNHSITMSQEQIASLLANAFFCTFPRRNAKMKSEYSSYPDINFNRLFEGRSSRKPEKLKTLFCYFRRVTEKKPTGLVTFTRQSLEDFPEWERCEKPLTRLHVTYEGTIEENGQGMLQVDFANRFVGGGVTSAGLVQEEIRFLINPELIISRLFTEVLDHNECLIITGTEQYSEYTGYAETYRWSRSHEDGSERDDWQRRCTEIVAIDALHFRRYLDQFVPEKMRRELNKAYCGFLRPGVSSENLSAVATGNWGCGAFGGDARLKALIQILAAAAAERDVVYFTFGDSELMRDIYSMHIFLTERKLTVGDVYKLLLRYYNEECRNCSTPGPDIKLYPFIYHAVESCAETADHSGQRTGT

Cn1ncnc1[C@H]1c2n[nH]c(=O)c3cc(F)cc(c23)N[C@@H]1c1ccc(F)cc1 [BMN 673, (8S,9R)-5-fluoro-8-(4-fluorophenyl)-9-(1-methyl-1H-1,2,4-triazol-5-yl)-8,9-dihydro-2H-pyrido[4,3,2-de]phthalazin-3(7H)-one]
CYP2C19 inhibition [1]: did not inhibit | IC50 [2, 26]: 5 nM | IC50 [2, 27]: 5 nM | EC50 ([3]; read-out: Cellular PAR Synthesis EC50): 2.5 nM | IC50 ([3]; read-out: intracellular PAR formation IC50): 2.5 nM | effect on tumor growth ([4]; 0.1 mg/kg oral once daily, after extended treatment (>21 days)): small effect on tumor growth | tumor re-establishment after dosing ceased ([4]; 0.165 mg/kg/dose BID x 28, followed eight weeks after dosing ceased): none of the mice had tumor re-growth; also recorded: no re-establishment of tumor | mice achieving complete response (CR) ([4]; 0.165 mg/kg/dose oral BID, 28 days): all 6 mice and 6/6 | tolerability ([4]; 0.33 mg/kg and 0.1 mg/kg, 28 consecutive once daily oral doses): well tolerated | mice achieving complete response (CR, tumor impalpable) ([4]; 0.33 mg/kg oral once-a-day, 28 days): four CRs out of six | tumor growth delay [5]: 22.8 days | remaining after incubation in liver microsomes [6]: more than 90% | IC50 [7]: 1850 nM | IC50 [8, 28]: 310 nM | IC50 [9]: 4 nM | potentiation of carboplatin anti-tumor effect in vivo ([10]; BMN 673 0.33 mg/kg oral once-a-day 5 or 8 days plus carboplatin 35 mg/kg IP): significant potentiation | tolerability ([10]; BMN 673 0.33 mg/kg plus carboplatin 35 mg/kg IP): No animal lethality or significant body weight loss | tumor growth delay ([11]; 0.33 mg/kg oral QDx28, vs vehicle-treated control): 15.9 days | effectiveness of 0.165 mg/kg/dose BIDx28 vs 0.33 mg/kg/dose QDx28 ([11]; MDA-MB-468 xenograft): slightly more effective | potentiation of the cytotoxic effect of SN38 [12]: potentiated | off-rate [13]: 0.000105 s⁻¹ | on-rate [13]: 368000 M⁻¹ s⁻¹ | dissociation rate, times slower than that of veliparib ([13]; vs veliparib): ~40 times | CYP1A2 inhibition [14]: did not inhibit | intratumoral PAR level [15, 29]: drastically decreased | intratumoral PAR level [15, 30]: drastically decreased | intratumoral PAR level [15, 31]: Partial recovery | effect on PARG activity [16]: no effect | hERG inhibition [17]: no significant inhibition | effect of combining with platinum drugs in vitro [18]: clearly additive effect | CYP2D6 inhibition [19]: did not inhibit | potentiation of TMZ cytotoxicity ([20]; combined with 200 μM TMZ): significant potentiation | CYP3A4 inhibition [21]: did not inhibit | CYP2C9 inhibition [22]: did not inhibit | remaining after incubation in liver microsomes [23]: more than 90% | maximum average weight loss ([24]; BMN 673 0.033 mg/kg plus cisplatin 6 mg/kg IP): 3% | maximum average weight loss ([24]; BMN 673 0.1 mg/kg plus cisplatin 6 mg/kg IP): 5% | maximum average weight loss ([24]; BMN 673 0.33 mg/kg plus cisplatin 6 mg/kg IP): 6% | maximum average weight loss ([24]; BMN 673 1 mg/kg plus cisplatin 6 mg/kg IP): 11% | animal deaths ([24]; BMN 673 1 mg/kg plus cisplatin, Day 20): One animal died | growth of MX-1 tumor xenografts ([24]; BMN 673 oral once daily days 1-8 plus cisplatin 6 mg/kg IP): significantly inhibited in a dose-dependent manner | remaining after incubation in liver microsomes [25]: more than 90%

O=C(c1cc(Cc2n[nH]c(=O)c3ccccc23)ccc1F)N1CCN(C(=O)C2CC2)CC1 [Olaparib, olaparib]
IC50 [2, 26]: 259 nM | IC50 [2, 27]: 259 nM | IC50 [7]: 6410 nM | IC50 [8, 28]: 5830 nM | IC50 [9]: 787 nM | intratumoral PAR level [15, 29]: significant decrease | intratumoral PAR level [15, 30]: partial recovery | intratumoral PAR level [15, 31]: complete recovery | cisplatin sensitizing effect ([24]; olaparib 100 mg/kg oral once-a-day day 1 to 8 plus cisplatin 6 mg/kg): equivalent to the lowest dose of BMN 673 | maximum body weight loss ([24]; olaparib 100 mg/kg plus cisplatin 6 mg/kg IP): 3%

CNCc1ccc(-c2[nH]c3cc(F)cc4c3c2CCNC4=O)cc1 [Rucaparib, rucaparib]
IC50 [7]: 5530 nM | IC50 [8, 28]: 8530 nM

Cn1nnc2c(C(N)=O)ncn2c1=O [TMZ, temozolomide, reference compound]
inhibition at 200 µM ([20]; Homo sapiens, 120 h, read-out: cell growth inhibition): ~15%

C[C@]1(c2nc3c(C(N)=O)cccc3[nH]2)CCCN1 [Veliparib, veliparib]
IC50 ([2]; read-out: Capan-1 Cytotoxicity IC50, single agent, 50% cell survival reduction): > 10000 nM | IC50 ([2]; read-out: SF50 Capan-1 (BRCA2 deficient), 2-D cytotoxicity assay): > 10000 nM | IC50 ([8]; read-out: SF50 MRC-5 (Normal), 2-D cytotoxicity assay): > 10000 nM | off-rate [13]: 0.0041 s⁻¹ | on-rate [13]: 1.74e+06 M⁻¹ s⁻¹

N.N.[Cl][Pt][Cl] [cisplatin, reference compound]
maximum average body weight loss ([24]; cisplatin alone, 6 mg/kg IP): 3%
